From patent publication US8334382B2, “Substituted biaryl piperazinyl-pyridine analogues” (Neurogen Corporation, priority 2004, dated 2012)

target: T1, human capsaicin receptor (Homo sapiens, UniProt Q8NER1); test: Calcium mobilization assay, determination of antagonist activity; type: cell-based; conditions: capsaicin at EC50; cells expressing human capsaicin receptor; Example 6
T1 construct: expressed in transfected cells; host or cells: HEK293, stably transfected with pBK-CMV construct
Outline: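 IC50 is the antagonist level giving a 50% drop in the capsaicin (EC50) calcium signal, read by FLIPR in Fluo-3 AM-loaded stable HEK293 lines bearing full-length human receptor. Compounds at 1-5 µM final were preincubated 0.5-6 h, room temperature, dark, in KRH pH 7.4.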

T1 sequence (Q8NER1 whole entry): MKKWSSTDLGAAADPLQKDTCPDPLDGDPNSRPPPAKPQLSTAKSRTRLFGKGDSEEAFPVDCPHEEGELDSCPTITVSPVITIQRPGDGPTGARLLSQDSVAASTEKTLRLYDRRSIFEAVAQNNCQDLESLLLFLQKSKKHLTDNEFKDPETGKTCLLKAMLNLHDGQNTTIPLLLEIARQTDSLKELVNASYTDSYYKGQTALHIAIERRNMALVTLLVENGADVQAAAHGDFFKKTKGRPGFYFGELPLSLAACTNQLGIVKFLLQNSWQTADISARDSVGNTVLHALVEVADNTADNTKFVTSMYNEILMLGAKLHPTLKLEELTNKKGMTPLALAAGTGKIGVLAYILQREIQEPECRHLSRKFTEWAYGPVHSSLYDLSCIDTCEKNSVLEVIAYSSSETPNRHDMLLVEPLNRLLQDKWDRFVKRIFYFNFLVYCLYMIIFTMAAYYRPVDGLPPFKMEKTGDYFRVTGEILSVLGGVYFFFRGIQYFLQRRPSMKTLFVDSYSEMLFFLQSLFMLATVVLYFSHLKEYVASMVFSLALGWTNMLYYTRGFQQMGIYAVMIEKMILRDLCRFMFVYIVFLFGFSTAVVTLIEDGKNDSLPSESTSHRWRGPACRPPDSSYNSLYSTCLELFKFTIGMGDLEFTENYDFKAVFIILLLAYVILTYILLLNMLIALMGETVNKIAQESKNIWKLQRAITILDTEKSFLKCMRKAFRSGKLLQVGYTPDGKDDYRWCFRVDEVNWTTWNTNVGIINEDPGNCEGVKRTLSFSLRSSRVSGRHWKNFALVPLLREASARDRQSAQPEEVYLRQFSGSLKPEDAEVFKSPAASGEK

Structure (SMILES)	IC50 [µM]
COc1ccc([N+](=O)[O-])c(N2CCN(c3cc(-c4ccc(F)c(Cl)c4)nc(N4CCCC4C)n3)CC2)n1 (centres unmarked) [Example 22, 4-(3-Chloro-4-fluoro-phenyl)-6-[4-(6-methoxy-3-nitro-pyridin-2-yl)-piperazin-1-yl]-2-(2-methyl-pyrrolidin-1-yl)-pyrimidine]	≤ 1
Cc1cc(C(=O)NC2CCC2)cnc1N1CCN(c2cc(-c3ccc(F)cc3)nc(N3CCCC3C)n2)CC1 (centres unmarked) [Example 107, N-cyclobutyl-6-{4-[6-(4-fluorophenyl)-2-(2-methylpyrrolidin-1-yl)pyrimidin-4-yl]piperazin-1-yl}-5-methylnicotinamide]	≤ 1
Cc1cc(C(=O)N2CCN(C)CC2)cnc1N1CCN(c2cc(-c3ccc(F)cc3)nc(N3CCCC3C)n2)CC1 (centres unmarked) [Example 131, 4-(4-fluorophenyl)-6-(4-{3-methyl-5-[(4-methylpiperazin-1-yl)carbonyl]pyridin-2-yl}piperazin-1-yl)-2-(2-methylpyrrolidin-1-yl)pyrimidine]	≤ 1
C[C@@H]1CN(c2ncc(C(=O)N3CCC[C@H]3CO)cc2Cl)CCN1c1cc(-c2ccc(F)cc2)nc(N2CCC[C@H]2CO)n1 [Example 155, (5-Chloro-6-{4-[6-(4-fluoro-phenyl)-2-(2-(S)-hydroxymethyl-pyrrolidin-1-yl)-pyrimidin-4-yl]-3-(R)-methyl-piperazin-1-yl}-pyridin-3-yl)-(2-(S)-hydroxymethyl-pyrrolidin-1-yl)-methanone]	≤ 1
Cc1cc(C(=N)N)cnc1N1CCN(c2cc(-c3ccc(F)cc3)nc(N3CCCC3C)n2)CC1 (centres unmarked) [Example 91, 6-{4-[6-(4-fluorophenyl)-2-(2-methylpyrrolidin-1-yl)pyrimidin-4-yl]piperazin-1-yl}-5-methylpyridine-3-carboximidamide]	≤ 1
CCOC(=O)c1cnc(N2CCN(c3cc(-c4ccc(F)cc4)nc(N4CCCC4)n3)[C@H](C)C2)c(Cl)c1 [Example 28, 5-Chloro-6-{4-[6-(4-fluoro-phenyl)-2-pyrrolidin-1-yl-pyrimidin-4-yl]-3-(R)-methyl-piperazin-1-yl}-nicotinic acid ethyl ester]	≤ 1
CCCN1CCN(c2nc(-c3ccc(F)c(Cl)c3)cc(N3CCN(c4ncc(C(=O)O)cc4Cl)CC3)n2)CC1 [Example 17, 5-Chloro-6-{4-[6-(3-chloro-4-fluoro-phenyl)-2-(4-propyl-piperazin-1-yl)-pyrimidin-4-yl]-piperazin-1-yl}-nicotinic acid]	≤ 1
CC(=O)N1CCN(C(=O)c2cnc(N3CCN(c4cc(-c5ccc(F)cc5)nc(N5CCCC5C)n4)CC3)c(C)c2)CC1 (centres unmarked) [Example 134, 4-(4-{5-[(4-acetylpiperazin-1-yl)carbonyl]-3-methylpyridin-2-yl}piperazin-1-yl)-6-(4-fluorophenyl)-2-(2-methylpyrrolidin-1-yl)pyrimidine]	≤ 1
COC(=O)c1cnc(N2CCN(c3cc(-c4ccc(F)c(Cl)c4)nc(N4CCCC4C)n3)CC2)c(Cl)c1 (centres unmarked) [Example 20, 5-Chloro-6-{4-[6-(3-chloro-4-fluoro-phenyl)-2-(2-methyl-pyrrolidin-1-yl)-pyrimidin-4-yl]-piperazin-1-yl}-nicotinic acid methyl ester]	≤ 1
CCOC(=O)c1cnc(N2CCN(c3cc(-c4ccc(F)cc4)nc(N(C)C)n3)[C@H](C)C2)c(C)c1 [Example 62, 6-{4-[2-Dimethylamino-6-(4-fluoro-phenyl)-pyrimidin-4-yl]-3-(R)-methyl-piperazin-1-yl}-5-methyl-nicotinic acid ethyl ester]	≤ 1
Cc1cc(C(=O)N2CCC(F)(F)CC2)cnc1N1CCN(c2cc(-c3ccc(F)cc3)nc(N3CCCC3C)n2)CC1 (centres unmarked) [Example 142, 4-(4-{5-[(4,4-difluoropiperidin-1-yl)carbonyl]-3-methylpyridin-2-yl}piperazin-1-yl)-6-(4-fluorophenyl)-2-(2-methylpyrrolidin-1-yl)pyrimidine]	≤ 1
CCOC(=O)c1cnc(N2CCN(c3cc(-c4ccc(F)c(Cl)c4)ncn3)[C@H](C)C2)c(Cl)c1 [Example 79, 5-Chloro-6-{4-[6-(3-chloro-4-fluoro-phenyl)-pyrimidin-4-yl]-3-(R)-methyl-piperazin-1-yl}-nicotinic acid ethyl ester]	≤ 1

Continued, values first:

IC50 [µM]	Structure (SMILES)
≤ 1	C[C@@H]1CN(c2ncc(C(=O)NCCO)cc2Cl)CCN1c1cc(-c2ccccc2)nc(N2CCC[C@H]2C)n1 [Example 167, 5-Chloro-N-(2-hydroxy-ethyl)-6-{3-(R)-methyl-4-[2-(2-(R)-methyl-pyrrolidin-1-yl)-6-phenyl-pyrimidin-4-yl]-piperazin-1-yl}-nicotinamide]
≤ 1	Cc1cccc(-c2cc(N3CCN(c4ncc(C(=O)O)cc4C)CC3)nc(N3CCCC3C)n2)c1 (centres unmarked) [Example 76, 5-Methyl-6-{4-[2-(2-methyl-pyrrolidin-1-yl)-6-m-tolyl-pyrimidin-4-yl]-piperazin-1-yl}-nicotinic acid]
≤ 1	CCOC(=O)c1cnc(N2CCN(c3cc(-c4ccccc4)nc(N4CCCC4C)n3)CC2)c(C)c1 (centres unmarked) [Example 54, 5-Methyl-6-{4-[2-(2-methyl-pyrrolidin-1-yl)-6-phenyl-pyrimidin-4-yl]-piperazin-1-yl}-nicotinic acid ethyl ester]
≤ 1	CCOC(=O)c1cnc(N2CCN(c3cc(-c4ccncc4)nc(N4CCCC4C)n3)CC2)c(C)c1 (centres unmarked) [Example 56, 5-Methyl-6-{4-[2-(2-methyl-pyrrolidin-1-yl)-6-pyridin-4-yl-pyrimidin-4-yl]-piperazin-1-yl}-nicotinic acid ethyl ester]
≤ 1	Cc1ccc(-c2cc(N3CCN(c4ncc(C(=O)O)cc4C)C[C@H]3C)nc(N3CCCC3C)n2)cc1 (stereo partly drawn) [Example 168, 5-Methyl-6-{3-(R)-methyl-4-[2-(2-methyl-pyrrolidin-1-yl)-6-p-tolyl-pyrimidin-4-yl]-piperazin-1-yl}-nicotinic acid]
≤ 1	CCOC(=O)c1cnc(N2CCN(c3cc(-c4ccnc(C(C)C)c4)nc(N4CCCC4C)n3)[C@H](C)C2)c(C)c1 (stereo partly drawn) [Example 61, 6-{4-[6-(2-Isopropyl-pyridin-4-yl)-2-(2-methyl-pyrrolidin-1-yl)-pyrimidin-4-yl]-3-(R)-methyl-piperazin-1-yl}-5-methyl-nicotinic acid ethyl ester]
≤ 1	Cc1cc(C(=O)O)cnc1N1CCN(c2cc(-c3ccc(F)cc3)nc(N3CCC[C@@H]3C)n2)[C@H](C)C1 [Example 99, 6-{4-[6-(4-Fluoro-phenyl)-2-(2-(S)-methyl-pyrrolidin-1-yl)-pyrimidin-4-yl]-3-(R)-methyl-piperazin-1-yl}-5-methyl-nicotinic acid]
≤ 1	Cc1cc(-c2ncc[nH]2)cnc1N1CCN(c2cc(-c3ccc(F)cc3)nc(N3CCC[C@H]3C)n2)[C@H](C)C1 [Example 169, 4-(4-Fluoro-phenyl)-6-{4-[5-(1H-imidazol-2-yl)-3-methyl-pyridin-2-yl]-2-(R)-methyl-piperazin-1-yl}-2-(2-(R)-methyl-pyrrolidin-1-yl)-pyrimidine]
≤ 1	C[C@@H]1CN(c2ncc(CC(=O)O)cc2Cl)CCN1c1cc(-c2ccc(F)cc2)nc(N2CCC[C@H]2C)n1 [Example 101, (5-Chloro-6-{4-[6-(4-fluoro-phenyl)-2-(2-(R)-methyl-pyrrolidin-1-yl)-pyrimidin-4-yl]-3-(R)-methyl-piperazin-1-yl}-pyridin-3-yl)-acetic acid]
≤ 1	Cc1cc(OCCO)cnc1N1CCN(c2cc(-c3ccc(F)cc3)nc(N3CCC[C@H]3C)n2)[C@H](C)C1 (relative stereo) [Example 192, rel-2-({6-[(3R)-4-{6-(4-fluorophenyl)-2-[(2R)-2-methylpyrrolidin-1-yl]pyrimidin-4-yl}-3-methylpiperazin-1-yl]-5-methylpyridin-3-yl}oxy)ethanol]
≤ 1	Cc1cccc(-c2cc(N3CCN(c4ncc(C(=O)O)cc4Cl)C[C@H]3C)nc(N3CCCC3C)n2)c1 (stereo partly drawn) [Example 51, 5-Chloro-6-{3-(R)-methyl-4-[2-(2-methyl-pyrrolidin-1-yl)-6-m-tolyl-pyrimidin-4-yl]-piperazin-1-yl}-nicotinic acid]
≤ 1	CC(C)c1cc(-c2cc(N3CCN(c4ncc(C(=O)O)cc4Cl)C[C@H]3C)nc(N3CCCC3C)n2)ccn1 (stereo partly drawn) [Example 53, 5-Chloro-6-{4-[6-(2-isopropyl-pyridin-4-yl)-2-(2-methyl-pyrrolidin-1-yl)-pyrimidin-4-yl]-3-(R)-methyl-piperazin-1-yl}-nicotinic acid]
≤ 1	C[C@@H]1CN(c2ncc(C(=O)O)cc2Cl)CCN1c1cc(-c2ccc(F)cc2)nc(N2CCCC2)n1 [Example 30, 5-Chloro-6-{4-[6-(4-fluoro-phenyl)-2-pyrrolidin-1-yl-pyrimidin-4-yl]-3-(R)-methyl-piperazin-1-yl}-nicotinic acid]
≤ 1	Cc1cccc(-c2cc(N3CCN(c4ncc(CO)cc4Cl)C[C@H]3C)nc(N3CCCC3C)n2)c1 (stereo partly drawn) [Example 48, (5-Chloro-6-{3-(R)-methyl-4-[2-(2-methyl-pyrrolidin-1-yl)-6-m-tolyl-pyrimidin-4-yl]-piperazin-1-yl}-pyridin-3-yl)-methanol]
≤ 1	CCOC(=O)c1cnc(N2CCN(c3cc(-c4cncc(Cl)c4)nc(N4CCCC4C)n3)[C@H](C)C2)c(Cl)c1 (stereo partly drawn) [Example 42, 5-Chloro-6-{4-[6-(5-chloro-pyridin-3-yl)-2-(2-methyl-pyrrolidin-1-yl)-pyrimidin-4-yl]-3-(R)-methyl-piperazin-1-yl}-nicotinic acid ethyl ester]
≤ 1	Cc1ccc(-c2cc(N3CCN(c4ncc(C(=O)NCCO)cc4C)C[C@H]3C)nc(N3CCCC3C)n2)cn1 (stereo partly drawn) [Example 171, N-(2-Hydroxy-ethyl)-5-methyl-6-{3-(R)-methyl-4-[6-(6-methyl-pyridin-3-yl)-2-(2-methyl-pyrrolidin-1-yl)-pyrimidin-4-yl]-piperazin-1-yl}-nicotinamide]
≤ 1	Cc1cccc(-c2cc(N3CCN(c4ncc(C(=O)O)cc4C)C[C@H]3C)nc(N3CCCC3C)n2)c1 (stereo partly drawn) [Example 69, 5-Methyl-6-{3-(R)-methyl-4-[2-(2-methyl-pyrrolidin-1-yl)-6-m-tolyl-pyrimidin-4-yl]-piperazin-1-yl}-nicotinic acid]
